Laboratory results taken from ChEMBL document CHEMBL4665834 (J Med Chem, 2020).
Calls of active or inactive are those of the source. No cut-off for these calls is given here.

Legend:
[1] = Solubility of compound in water using crystalline form of sample; assay type: physicochemical
[2] = Relative oral bioavailability in Wistar rat at 1 to 3 mg/kg administered via gavage in 99.5% water, 0.5% Tylose and TRIS salt formulation by LC-MS/MS analysis; assay type: ADME, organism-based; details: in vivo, dose 1-3 mg/kg
[3] = Maximum oral bioavailability in rat hepatocytes based well stirred liver model at 1 uM measured after 2 to 90 mins by LC-MS/MS analysis; assay type: ADME, Hepatocyte; details: time 2-90 min, read-out: Fmax
[4] = Lipophilicity, log D of compound at pH 7.5 by HPLC analysis; details: buffer
[5] = species on record: Homo sapiens; assay: Selectivity ratio of IC50 for displacement of [3H]prostaglandin E2 from full-length recombinant human EP4 receptor expressed in Chem-1 cell membranes to IC50 for displacement of [3H]PGF2alpha from full-length recombinant human FP receptor expressed in HEK293 cell membranes
[6] = target: T1, Prostaglandin F2-alpha receptor (Homo sapiens, UniProt P43088); assay: Antagonist activity at human FPR expressed in human Chem-1 cells assessed as inhibition of PGF2alpha-induced calcium flux preincubated for 10 mins followed by PGF2alpha stimulation and measured for 120 secs by fluo-8 AM dye based fluorescence assay; assay type: functional, cell-based
T1 sequence (P43088 whole entry): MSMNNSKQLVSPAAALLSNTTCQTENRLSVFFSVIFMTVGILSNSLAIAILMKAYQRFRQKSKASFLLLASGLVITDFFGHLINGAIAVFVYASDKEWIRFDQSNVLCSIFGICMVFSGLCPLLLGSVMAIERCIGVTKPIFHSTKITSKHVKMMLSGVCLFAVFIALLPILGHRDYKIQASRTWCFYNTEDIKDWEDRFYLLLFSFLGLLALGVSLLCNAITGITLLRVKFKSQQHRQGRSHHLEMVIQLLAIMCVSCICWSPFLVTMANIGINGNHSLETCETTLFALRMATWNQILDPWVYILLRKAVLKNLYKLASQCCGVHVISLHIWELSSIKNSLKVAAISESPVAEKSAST

[7] = Clearance in Wistar rat at 0.3 to 1 mg/kg, iv administered as bolus dose by LC-MS/MS analysis; assay type: ADME, organism-based; details: in vivo, dose 0.3-1 mg/kg
[8] = Efflux ratio of apparent permeability across basolateral to apical side over apical to basolateral side in human Caco-2 cells measured after 2 hrs by HPLC analysis; assay type: ADME, cell-based
[9] = Clearance in Wistar rat at 0.3 to 1 mg/kg, iv administered as bolus dose or 15 mins infusion by LC-MS/MS analysis; assay type: ADME, organism-based; details: Wistar, in vivo, dose 0.3-1 mg/kg
[10] = target: Cytochrome P450 3A4 (Homo sapiens, UniProt P08684); assay: Inhibition of CYP3A4 in human liver microsomes using midazolam as substrate incubated for 10 mins in presence of NADPH generating system by LC-MS/MS analysis
Cytochrome P450 3A4, sequence (P08684 whole entry): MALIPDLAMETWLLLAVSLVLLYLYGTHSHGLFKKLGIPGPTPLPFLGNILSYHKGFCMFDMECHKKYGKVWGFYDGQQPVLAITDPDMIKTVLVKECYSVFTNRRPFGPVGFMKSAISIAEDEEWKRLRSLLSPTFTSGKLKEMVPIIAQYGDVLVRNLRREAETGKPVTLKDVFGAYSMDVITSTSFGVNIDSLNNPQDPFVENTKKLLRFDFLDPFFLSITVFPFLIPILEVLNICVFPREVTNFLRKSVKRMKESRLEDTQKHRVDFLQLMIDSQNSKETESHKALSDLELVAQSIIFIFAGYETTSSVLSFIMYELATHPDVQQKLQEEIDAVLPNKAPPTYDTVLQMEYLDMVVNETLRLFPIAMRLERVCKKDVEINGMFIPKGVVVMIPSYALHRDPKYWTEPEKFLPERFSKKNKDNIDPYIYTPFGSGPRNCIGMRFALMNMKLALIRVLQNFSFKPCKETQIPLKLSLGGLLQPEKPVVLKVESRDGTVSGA

[11] = species on record: Homo sapiens; assay: Selectivity ratio of IC50 for displacement of [3H]PGD2 from full-length recombinant human IP receptor expressed in HEK293 cell membranes to IC50 for displacement of [3H]PGF2alpha from full-length recombinant human FP receptor expressed in HEK293 cell membranes
[12] = species on record: Homo sapiens; assay: Selectivity ratio of IC50 for displacement of [3H]PGD2 from full-length recombinant human DP1 receptor expressed in Chem-1 cell membranes to IC50 for displacement of [3H]PGF2alpha from full-length recombinant human FP receptor expressed in HEK293 cell membranes
[13] = species on record: Homo sapiens; assay: Selectivity ratio of IC50 for displacement of [3H]prostaglandin E2 from full-length recombinant human EP3 receptor expressed in HEK293 cell membranes to IC50 for displacement of [3H]PGF2alpha from full-length recombinant human FP receptor expressed in HEK293 cell membranes
[14] = species on record: Homo sapiens; assay: Selectivity ratio of IC50 for displacement of [3H]prostaglandin E2 from full-length recombinant human EP2 receptor expressed in HEK293 cell membranes to IC50 for displacement of [3H]PGF2alpha from full-length recombinant human FP receptor expressed in HEK293 cell membranes
[15] = species on record: Homo sapiens; assay: Selectivity ratio of IC50 for displacement of [3H]prostaglandin E2 from full-length recombinant human EP1 receptor expressed in HEK293 cell membranes to IC50 for displacement of [3H]PGF2alpha from full-length recombinant human FP receptor expressed in HEK293 cell membranes
[16] = Apparent permeability in human Caco-2 cells measured after 2 hrs by HPLC analysis; assay type: ADME, cell-based
[17] = Relative oral bioavailability in Wistar rat at 1 to 3 mg/kg administered via gavage using crystalline form of sample in sodium salt formulation by LC-MS/MS analysis; assay type: ADME, organism-based; details: in vivo, dose 1-3 mg/kg
[18] = Clearance in Wistar rat hepatocytes assessed as extrapolated blood clearance at 1 uM measured after 2 to 90 mins by LC-MS/MS analysis; assay type: ADME, cell-based, Hepatocyte; details: time 2-90 min
[19] = target: Prostacyclin receptor (Homo sapiens, UniProt P43119); assay: Displacement of [3H]PGD2 from full-length recombinant human IP receptor expressed in HEK293 cell membranes measured after 60 mins by scintillation counting method
Prostacyclin receptor, sequence (P43119 whole entry): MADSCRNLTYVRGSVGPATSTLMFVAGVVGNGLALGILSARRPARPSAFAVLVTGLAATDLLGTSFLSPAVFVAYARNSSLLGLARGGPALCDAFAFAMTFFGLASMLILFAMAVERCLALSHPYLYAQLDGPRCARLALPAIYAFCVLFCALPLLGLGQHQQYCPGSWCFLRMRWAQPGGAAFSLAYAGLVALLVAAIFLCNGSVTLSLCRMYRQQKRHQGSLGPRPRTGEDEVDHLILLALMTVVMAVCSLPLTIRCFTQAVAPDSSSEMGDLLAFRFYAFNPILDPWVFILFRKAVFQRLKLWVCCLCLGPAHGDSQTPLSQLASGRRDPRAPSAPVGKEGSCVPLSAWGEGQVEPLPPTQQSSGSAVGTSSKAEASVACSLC

[20] = target: Prostaglandin D2 receptor (Homo sapiens) (UniProt Q13258); assay: Displacement of [3H]PGD2 from full-length recombinant human DP1 receptor expressed in Chem-1 cell membranes measured after 120 mins by scintillation counting method
Prostaglandin D2 receptor (Homo sapiens), sequence (Q13258 whole entry): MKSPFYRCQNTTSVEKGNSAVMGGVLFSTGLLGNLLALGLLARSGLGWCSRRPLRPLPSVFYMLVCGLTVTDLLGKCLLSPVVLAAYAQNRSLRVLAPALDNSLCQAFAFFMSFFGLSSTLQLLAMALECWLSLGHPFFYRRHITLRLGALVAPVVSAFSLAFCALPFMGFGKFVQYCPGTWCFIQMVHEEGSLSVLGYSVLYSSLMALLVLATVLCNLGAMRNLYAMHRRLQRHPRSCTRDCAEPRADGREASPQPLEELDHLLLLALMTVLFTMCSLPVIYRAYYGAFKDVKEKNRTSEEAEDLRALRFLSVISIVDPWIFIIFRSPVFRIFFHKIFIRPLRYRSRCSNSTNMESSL

[21] = target: Prostaglandin E2 receptor EP4 subtype (Homo sapiens, UniProt P35408); assay: Displacement of [3H]prostaglandin E2 from full-length recombinant human EP4 receptor expressed in HEK293 cell membranes measured after 120 mins by scintillation counting method
Prostaglandin E2 receptor EP4 subtype, sequence (P35408 whole entry): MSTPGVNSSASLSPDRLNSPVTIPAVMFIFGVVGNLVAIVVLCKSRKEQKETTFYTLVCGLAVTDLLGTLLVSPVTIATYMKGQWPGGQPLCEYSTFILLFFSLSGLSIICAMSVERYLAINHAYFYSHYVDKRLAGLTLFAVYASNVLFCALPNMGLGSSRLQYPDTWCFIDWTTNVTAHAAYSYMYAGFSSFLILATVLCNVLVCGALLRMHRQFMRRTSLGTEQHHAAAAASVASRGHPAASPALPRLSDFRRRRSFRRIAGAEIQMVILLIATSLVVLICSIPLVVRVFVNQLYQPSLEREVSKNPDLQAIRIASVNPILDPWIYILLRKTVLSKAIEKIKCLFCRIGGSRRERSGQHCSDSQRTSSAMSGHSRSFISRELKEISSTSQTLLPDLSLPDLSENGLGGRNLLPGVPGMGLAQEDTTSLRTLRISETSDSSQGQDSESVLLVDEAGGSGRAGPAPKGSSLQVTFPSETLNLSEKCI

[22] = target: Prostaglandin E2 receptor EP3 subtype (Homo sapiens) (UniProt P43115); assay: Displacement of [3H]prostaglandin E2 from full-length recombinant human EP3 receptor expressed in HEK293 cell membranes measured after 120 mins by scintillation counting method
Prostaglandin E2 receptor EP3 subtype (Homo sapiens), sequence (P43115 whole entry): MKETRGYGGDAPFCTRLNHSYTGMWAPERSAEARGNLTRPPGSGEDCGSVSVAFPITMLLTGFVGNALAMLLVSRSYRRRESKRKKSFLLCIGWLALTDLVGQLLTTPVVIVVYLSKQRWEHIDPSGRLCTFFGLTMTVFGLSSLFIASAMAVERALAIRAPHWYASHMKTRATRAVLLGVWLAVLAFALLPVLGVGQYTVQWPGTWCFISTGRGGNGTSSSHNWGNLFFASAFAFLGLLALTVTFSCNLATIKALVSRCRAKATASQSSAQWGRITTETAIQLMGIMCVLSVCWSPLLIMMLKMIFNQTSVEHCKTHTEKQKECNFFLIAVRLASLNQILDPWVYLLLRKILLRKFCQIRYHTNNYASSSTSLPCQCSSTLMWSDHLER

[23] = target: Prostaglandin E2 receptor EP2 subtype (Homo sapiens, UniProt P43116); assay: Displacement of [3H]prostaglandin E2 from full-length recombinant human EP2 receptor expressed in HEK293 cell membranes measured after 120 mins by scintillation counting method
Prostaglandin E2 receptor EP2 subtype, sequence (P43116 whole entry): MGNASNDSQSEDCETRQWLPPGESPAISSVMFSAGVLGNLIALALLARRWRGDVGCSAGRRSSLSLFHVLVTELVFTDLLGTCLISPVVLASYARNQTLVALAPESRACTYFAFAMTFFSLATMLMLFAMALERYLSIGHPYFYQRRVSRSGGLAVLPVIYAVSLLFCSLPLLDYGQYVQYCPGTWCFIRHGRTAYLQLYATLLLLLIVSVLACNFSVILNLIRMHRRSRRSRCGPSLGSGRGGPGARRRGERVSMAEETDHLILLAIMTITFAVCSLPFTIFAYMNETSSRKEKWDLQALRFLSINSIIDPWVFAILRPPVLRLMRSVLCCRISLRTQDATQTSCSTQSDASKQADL

[24] = target: Prostaglandin E2 receptor EP1 subtype (Homo sapiens) (UniProt P34995); assay: Displacement of [3H]prostaglandin E2 from full-length recombinant human EP1 receptor expressed in HEK293 cell membranes measured after 60 mins by scintillation counting method
Prostaglandin E2 receptor EP1 subtype (Homo sapiens), sequence (P34995 whole entry): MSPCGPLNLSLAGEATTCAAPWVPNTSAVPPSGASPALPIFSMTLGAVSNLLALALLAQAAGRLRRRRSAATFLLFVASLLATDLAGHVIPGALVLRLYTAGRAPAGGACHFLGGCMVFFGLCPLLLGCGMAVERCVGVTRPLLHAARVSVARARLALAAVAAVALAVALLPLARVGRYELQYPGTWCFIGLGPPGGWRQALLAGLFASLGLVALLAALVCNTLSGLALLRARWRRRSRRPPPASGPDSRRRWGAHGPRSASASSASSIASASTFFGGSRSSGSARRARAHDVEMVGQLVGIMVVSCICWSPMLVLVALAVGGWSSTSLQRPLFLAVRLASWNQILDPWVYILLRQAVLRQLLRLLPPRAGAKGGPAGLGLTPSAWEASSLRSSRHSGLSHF

[25] = target: T1, Prostaglandin F2-alpha receptor; assay: Displacement of [3H]PGF2alpha from full-length recombinant human FP receptor expressed in HEK293 cell membranes measured after 60 mins by scintillation counting method
[26] = Half life in Wistar rat at 0.3 to 1 mg/kg, iv administered as bolus dose by LC-MS/MS analysis; assay type: ADME, organism-based; details: in vivo, dose 0.3-1 mg/kg
[27] = Oral bioavailability in Wistar rat at 1 to 3 mg/kg administered via gavage using EtOH/PEG400/H2O 10/40/50 formulation by LC-MS/MS analysis; assay type: ADME, organism-based; details: in vivo, dose 1-3 mg/kg
[28] = Protein binding in pooled human plasma assessed as unbound fraction incubated for 6 hrs by LC-MS/MS analysis based equilibrium dialysis method; assay type: ADME, cell-free

SMILES | logD [4] | Ratio IC50 [5] | IC50 [6] | clearance [9] | IC50 [10] | Ratio IC50 [11] | Ratio IC50 [12] | Ratio IC50 [13] | Ratio IC50 [14] | Ratio IC50 [15] | further results
Cc1c(N2CCCC2)nc2ccc(Br)cc2c1C(=O)NC[C@H](CCC(=O)O)c1ccccc1Cl.Cl | – | – | – | – | – | – | – | – | – | – | solubility [1]: 2300 µg/mL
Cc1c(-c2ccccc2)nc2ccc(Br)cc2c1C(=O)Nc1ccc(C(=O)O)cc1F.NC(CO)(CO)CO | – | – | – | – | – | – | – | – | – | – | bioavailability [2]: 37%
Cc1c(-c2ccccc2)nc2ccc(Br)cc2c1C(=O)NCCc1cccnc1 | 2.6 | > 7.7 | 3400 nM | – | – | – | – | – | – | – | Fh at 1 µM [3]: 4%
Cc1c(-c2ccccc2)nc2ccc(Br)cc2c1C(=O)Nc1ccc(-c2nnn[nH]2)cc1F | – | 50 | 5.2 nM | – | – | – | – | – | – | – | clearance [7]: 50 mL/min/kg; efflux ratio at 2 h [8]: 10
Cc1c(-c2ccccc2)nc2ccc(I)cc2c1C(=O)Nc1ccc(C(=O)O)cc1F | 2 | 15 | – | 21.7 mL/min/kg | > 20000 nM | > 86 | > 86 | > 86 | > 86 | > 86 | –
Cc1c(-c2ccccc2)nc2ccc(C(C)(C)C)cc2c1C(=O)Nc1ccc(C(=O)O)cc1F | 2.1 | 170 | – | 20 mL/min/kg | > 20000 nM | > 87 | > 87 | > 87 | > 87 | > 87 | –
Cc1c(C(=O)Nc2ccc(C(=O)O)cc2F)c2cc(Br)ccc2c(=O)n1-c1ccccc1 | 1.6 | 170 | 40 nM | 100 mL/min/kg | > 20000 nM | > 1600 | > 1600 | > 1600 | > 1600 | > 1600 | efflux ratio at 2 h [8]: 7.4; Papp at 2 h [16]: 3.9 ×10⁻⁶ cm/s
Cc1c(-c2ccccc2)nc2ccc(Br)cc2c1C(=O)Nc1ccc(C(=O)[O-])cc1F.[Na+] | – | – | – | – | – | – | – | – | – | – | bioavailability [17]: 29%
Cc1c(-c2ccccc2)nc2ccc(Br)cc2c1C(=O)NC12CCC(C(=O)O)(CC1)CC2.NC(CO)(CO)CO | – | – | – | – | – | – | – | – | – | – | bioavailability [2]: 79%
Cc1c(-c2ccccc2)nc2ccc(Br)cc2c1C(=O)Nc1ccc(C(=O)O)cc1 | 1.9 | 10 | 150 nM | 23.3 mL/min/kg | > 20000 nM | > 110 | > 110 | > 110 | > 110 | > 110 | –
Cc1c(-c2ccccc2)nc2ccc(Br)cc2c1C(=O)NCCc1ccccn1 | – | – | 200 nM | – | – | – | – | – | – | – | Fh at 1 µM [3]: 7%
Cc1c(-c2ccccc2)nc2ccc(Br)cc2c1C(=O)NC12CCC(C(=O)[O-])(CC1)CC2.[Na+] | – | – | – | – | – | – | – | – | – | – | bioavailability [17]: 80%
Cc1c(-c2ccccc2)nc2ccc(C(F)(F)F)cc2c1C(=O)Nc1ccc(C(=O)O)cc1F | 2.1 | 13 | – | 40 mL/min/kg | > 20000 nM | > 64 | > 64 | > 64 | > 64 | > 64 | –
Cc1c(-c2ccccc2)nc2ccc(Br)cc2c1C(=O)Nc1ccc(C(N)=O)cc1F | – | 16 | – | – | – | – | – | – | – | – | efflux ratio at 2 h [8]: 18; CLhep predicted at 1 µM [18]: 58.3 mL/min/kg
Cc1c(-c2cccs2)nc2ccc(Br)cc2c1C(=O)NCCc1cccnc1 | – | > 3.1 | 1800 nM | – | – | > 3.1 | > 3.1 | > 3.1 | > 3.1 | > 3.1 | inhibition [19]: inactive; inhibition [20]: inactive; inhibition [21]: inactive; inhibition [22]: inactive; IC50 [23]: 4400 nM; inhibition [24]: inactive; IC50 [25]: 1400 nM
Cc1c(-c2ccccc2)nc2ccc(Br)cc2c1C(=O)NCC(C)c1ccccn1 (racemic) | 3.1 | – | 190 nM | – | – | – | – | – | – | – | Fh at 1 µM [3]: 24%
Cc1c(-c2ccccc2)nc2ccc(Br)cc2c1C(=O)NCC(CCC(=O)O)c1ccccc1Cl (single isomer, unassigned; (+)) | 2.2 | – | 9 nM | 30 mL/min/kg | > 20000 nM | – | – | – | – | – | half-life [26]: 5.5 h; bioavailability [27]: 75%
COc1ccccc1C(C)CNC(=O)c1c(C)c(-c2ccccc2)nc2ccc(Br)cc12 (single isomer, unassigned; (-)) | – | – | 14 nM | 63.3 mL/min/kg | – | – | – | – | – | – | Fh at 1 µM [3]: 6%; CLhep predicted at 1 µM [18]: 65 mL/min/kg; fraction unbound at 6 h [28]: < 0.01; IC50 [25]: < 1 nM
Cc1c(-c2ccccc2)nc2ccc(Br)cc2c1C(=O)NCC(C(=O)O)c1ccccc1Cl (stereo in doubt; 31) | – | – | – | 55 mL/min/kg | – | – | – | – | – | – | Fh at 1 µM [3]: 78%; CLhep predicted at 1 µM [18]: 15 mL/min/kg
Cc1c(-c2ccccc2)nc2ccc(Br)cc2c1C(=O)NCC(CCCC(=O)O)c1ccccc1Cl (stereo in doubt; 44) | – | – | – | 33.3 mL/min/kg | 13000 nM | – | – | – | – | – | Papp at 2 h [16]: 40.1 ×10⁻⁶ cm/s
